According to PubChem BioAssay (NCI):
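Dose response: 5 concentrations. Exposure: 48 h. Format: 96-well plates. Endpoint: linear interpolation; highest concentration if not reached. Here, GI50 denotes the concentration required for 50% inhibition of growth. TGI: total growth inhibition.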 Where a SMILES comes first, the peptide text is derived from it. The star is where a group is joined. Palmitoyl = CCCCCCCCCCCCCCCC(=O)*

Legend:
Assay in all cases: inhibition of tumour cell growth, NCI panel, 48 h
MCF7 breast = system: MCF7 breast
HT29 colon = system: HT29 colon
SF-295 CNS = system: SF-295 CNS
UO-31 renal = system: UO-31 renal
MDA-MB-231 breast = system: MDA-MB-231 breast
HOP-92 NSCLC = system: HOP-92 NSCLC
COLO 205 colon = system: COLO 205 colon
RPMI-8226 leukemia = system: RPMI-8226 leukemia
NCI-H23 lung = system: NCI-H23 lung
CCRF-CEM leukemia = system: CCRF-CEM leukemia
MALME-3M melanoma = system: MALME-3M melanoma
SNB-19 CNS = system: SNB-19 CNS
A549 NSCLC = system: A549 NSCLC
DU-145 prostate = system: DU-145 prostate
NCI/ADR-RES ovarian = system: NCI/ADR-RES ovarian
OVCAR-5 ovarian = system: OVCAR-5 ovarian
BT-549 breast = system: BT-549 breast
OVCAR-4 ovarian = system: OVCAR-4 ovarian
MOLT-4 leukemia = system: MOLT-4 leukemia
KM12 colon = system: KM12 colon
HS 578T breast = system: HS 578T breast
SF-539 CNS = system: SF-539 CNS
TK-10 renal = system: TK-10 renal
SK-MEL-5 melanoma = system: SK-MEL-5 melanoma
NCI-H226 lung = system: NCI-H226 lung
RXF 393 renal = system: RXF 393 renal
SNB-75 CNS = system: SNB-75 CNS
M14 melanoma = system: M14 melanoma
SK-OV-3 ovarian = system: SK-OV-3 ovarian
OVCAR-8 ovarian = system: OVCAR-8 ovarian
HL-60(TB) leukemia = system: HL-60(TB) leukemia
UACC-257 melanoma = system: UACC-257 melanoma
SK-MEL-28 melanoma = system: SK-MEL-28 melanoma
NCI-H522 lung = system: NCI-H522 lung
HOP-62 NSCLC = system: HOP-62 NSCLC
HCC-2998 colon = system: HCC-2998 colon
SK-MEL-2 melanoma = system: SK-MEL-2 melanoma
SF-268 CNS = system: SF-268 CNS
SR leukemia = system: SR leukemia
K-562 leukemia = system: K-562 leukemia
OVCAR-3 ovarian = system: OVCAR-3 ovarian
IGROV1 ovarian = system: IGROV1 ovarian
A498 renal = system: A498 renal
MDA-MB-435 = system: MDA-MB-435
CAKI-1 renal = system: CAKI-1 renal
HCT-116 colon = system: HCT-116 colon
SW-620 colon = system: SW-620 colon
T-47D breast = system: T-47D breast
NCI-H460 lung = system: NCI-H460 lung
EKVX NSCLC = system: EKVX NSCLC

Work on `CCCCCCCCCCCCCCCC(=O)NC(CCCCN)C(=O)NCC(=O)NC(Cc1ccccc1)C(=O)N1CCCC1C(=O)NC(CO)C(=O)NC(Cc1ccc(O)cc1)C(=O)NC(CCCCN)C(=O)NC(CC(C)C)C(=O)NC(CCCN=C(N)N)C(=O)N1CCCC1C(=O)NCC(N)=O` (stereo not given) (Palmitoyl-KGFPSYKLRPG-NH2; configuration not given here) yielded a GI50 (MCF7 breast) of 21.1 µM, a TGI (MCF7 breast) of 44 µM and a GI50 (HT29 colon) of 17 µM. For the same compound, the TGI (HT29 colon) was 30.7 µM, the GI50 (SF-295 CNS) was 27.1 µM and the TGI (SF-295 CNS) was 72.6 µM. It also gave a GI50 (UO-31 renal) of 20.2 µM, a TGI (UO-31 renal) of 49.9 µM and a GI50 (MDA-MB-231 breast) of 17.3 µM. For the same compound, the TGI (MDA-MB-231 breast) was 33.2 µM, the GI50 (HOP-92 NSCLC) was 19.3 µM and the TGI (HOP-92 NSCLC) was 45.4 µM. It also gave a GI50 (COLO 205 colon) of 19.6 µM, a TGI (COLO 205 colon) of 41.1 µM and a GI50 (RPMI-8226 leukemia) of 13.1 µM. It also gave a TGI (RPMI-8226 leukemia) of 32.5 µM, a GI50 (NCI-H23 lung) of 23.9 µM and a TGI (NCI-H23 lung) of 55.6 µM. For the same compound, the GI50 (CCRF-CEM leukemia) was 20.5 µM, the TGI (CCRF-CEM leukemia) was 40.2 µM and the GI50 (MALME-3M melanoma) was over 100 µM. The TGI (MALME-3M melanoma) was over 100 µM, the GI50 (SNB-19 CNS) was 26.6 µM and the TGI (SNB-19 CNS) was 54.9 µM. It also gave a GI50 (A549 NSCLC) of 19.5 µM, a TGI (A549 NSCLC) of 44.4 µM and a GI50 (DU-145 prostate) of 20.2 µM. It also gave a TGI (DU-145 prostate) of 49.4 µM, a GI50 (NCI/ADR-RES ovarian) of 20.7 µM and a TGI (NCI/ADR-RES ovarian) of 42.9 µM. The GI50 (OVCAR-5 ovarian) was 20.7 µM, the TGI (OVCAR-5 ovarian) was 48.1 µM and the GI50 (BT-549 breast) was 24.1 µM. The TGI (BT-549 breast) was 50.4 µM, the GI50 (OVCAR-4 ovarian) was 30.5 µM and the TGI (OVCAR-4 ovarian) was 78.7 µM. For the same compound, the GI50 (MOLT-4 leukemia) was 16.5 µM, the TGI (MOLT-4 leukemia) was 32.7 µM and the GI50 (KM12 colon) was 19.4 µM. It also gave a TGI (KM12 colon) of 46.6 µM, a GI50 (HS 578T breast) of 31.2 µM and a TGI (HS 578T breast) of over 100 µM. For the same compound, the GI50 (SF-539 CNS) was 21.1 µM, the TGI (SF-539 CNS) was 48.1 µM and the GI50 (TK-10 renal) was 21.9 µM. It also gave a TGI (TK-10 renal) of 44.8 µM, a GI50 (SK-MEL-5 melanoma) of 27.7 µM and a TGI (SK-MEL-5 melanoma) of over 100 µM. It also gave a GI50 (NCI-H226 lung) of 20.2 µM, a TGI (NCI-H226 lung) of 42.5 µM and a GI50 (RXF 393 renal) of 27.6 µM. For the same compound, the TGI (RXF 393 renal) was 69.4 µM, the GI50 (SNB-75 CNS) was 22.7 µM and the TGI (SNB-75 CNS) was 49.6 µM. For the same compound, the GI50 (M14 melanoma) was 18.4 µM, the TGI (M14 melanoma) was 37.9 µM and the GI50 (SK-OV-3 ovarian) was 23 µM. For the same compound, the TGI (SK-OV-3 ovarian) was 44.7 µM, the GI50 (OVCAR-8 ovarian) was 21.9 µM and the TGI (OVCAR-8 ovarian) was 52.8 µM. For the same compound, the GI50 (HL-60(TB) leukemia) was 19.1 µM, the TGI (HL-60(TB) leukemia) was 39.9 µM and the GI50 (UACC-257 melanoma) was 21.8 µM. It also gave a TGI (UACC-257 melanoma) of 48 µM, a GI50 (SK-MEL-28 melanoma) of 28.6 µM and a TGI (SK-MEL-28 melanoma) of 68.2 µM. The GI50 (NCI-H522 lung) was 22.1 µM, the TGI (NCI-H522 lung) was 50.6 µM and the GI50 (HOP-62 NSCLC) was 24.4 µM. It also gave a TGI (HOP-62 NSCLC) of 53.6 µM, a GI50 (HCC-2998 colon) of 17.1 µM and a TGI (HCC-2998 colon) of 35.2 µM. The GI50 (SK-MEL-2 melanoma) was 43.5 µM, the TGI (SK-MEL-2 melanoma) was over 100 µM and the GI50 (SF-268 CNS) was 21.7 µM. The TGI (SF-268 CNS) was 46.1 µM, the GI50 (SR leukemia) was 17.7 µM and the TGI (SR leukemia) was 39.4 µM. It also gave a GI50 (K-562 leukemia) of 22.2 µM, a TGI (K-562 leukemia) of 47.9 µM and a GI50 (OVCAR-3 ovarian) of 28.6 µM. It also gave a TGI (OVCAR-3 ovarian) of 76.5 µM, a GI50 (IGROV1 ovarian) of 17.8 µM and a TGI (IGROV1 ovarian) of 44.3 µM. The GI50 (A498 renal) was 34.2 µM, the TGI (A498 renal) was over 100 µM and the GI50 (MDA-MB-435) was 19 µM. For the same compound, the TGI (MDA-MB-435) was 50.8 µM, the GI50 (CAKI-1 renal) was 16.4 µM and the TGI (CAKI-1 renal) was 42.8 µM. It also gave a GI50 (HCT-116 colon) of 15.3 µM, a TGI (HCT-116 colon) of 31.8 µM and a GI50 (SW-620 colon) of 26 µM. The TGI (SW-620 colon) was 79.5 µM, the GI50 (T-47D breast) was 18 µM and the TGI (T-47D breast) was 45.2 µM. The GI50 (NCI-H460 lung) was 19.2 µM, the TGI (NCI-H460 lung) was 37.2 µM and the GI50 (EKVX NSCLC) was 18.8 µM. The TGI (EKVX NSCLC) was 44 µM.
